Legend:
[1] = tested on: mouse BaF3-FLT3-ITD-D835Y (stably expressing FLT3/ITD D835Y mutant activated kinase); test: Effects on proliferation of cells (Cell Titer-Glo), BaF3-FLT3-ITD-D835Y; format: cell-based; settings: incubated for 72 hours
Excerpt: (§1) This example tested the effects of the compounds of the present invention (the compound shown in Formula (I), hydrochloride salt, phosphate, mesylate, lactate, acetate, sulphate, and hydrobromide thereof prepared in EXAMPLES 1-8 respectively) on proliferation of tumor cells, and further evaluated the inhibitory effects of the compounds on proliferation of tumor cells and selectivity of the compounds in inhibiting proliferation of tumor cells.
(9) mouse BaF3-FLT3-ITD-D835Y (stably expressing FLT3/ITD D835Y mutant activated kinase);
(§2) The compounds at different concentration (0.000508 μM, 0.00152 μM, 0.00457 μM, 0.0137 μM, 0.0411 μM, 0.123 μM, 0.370 μM, 1.11 μM, 3.33 μM, 10 μM in DMSO) were added to the above-mentioned cells respectively, incubated for 72 hours, Cell Titer-Glo (Promega, United States of America) Chemiluminescence Kit was used to quantify ATP in living cells to detect the number of living cells, the results were shown as Table 3

FLT3 kinase = molecular target: T1, FLT3 kinase (Homo sapiens, UniProt P36888); test: Activity of inhibiting FLT3 kinase (fluorescein labeled peptide kinase assay); format: biochemical; settings: in vitro kinase assay, 28° C.
T1 sequence (P36888 27-993): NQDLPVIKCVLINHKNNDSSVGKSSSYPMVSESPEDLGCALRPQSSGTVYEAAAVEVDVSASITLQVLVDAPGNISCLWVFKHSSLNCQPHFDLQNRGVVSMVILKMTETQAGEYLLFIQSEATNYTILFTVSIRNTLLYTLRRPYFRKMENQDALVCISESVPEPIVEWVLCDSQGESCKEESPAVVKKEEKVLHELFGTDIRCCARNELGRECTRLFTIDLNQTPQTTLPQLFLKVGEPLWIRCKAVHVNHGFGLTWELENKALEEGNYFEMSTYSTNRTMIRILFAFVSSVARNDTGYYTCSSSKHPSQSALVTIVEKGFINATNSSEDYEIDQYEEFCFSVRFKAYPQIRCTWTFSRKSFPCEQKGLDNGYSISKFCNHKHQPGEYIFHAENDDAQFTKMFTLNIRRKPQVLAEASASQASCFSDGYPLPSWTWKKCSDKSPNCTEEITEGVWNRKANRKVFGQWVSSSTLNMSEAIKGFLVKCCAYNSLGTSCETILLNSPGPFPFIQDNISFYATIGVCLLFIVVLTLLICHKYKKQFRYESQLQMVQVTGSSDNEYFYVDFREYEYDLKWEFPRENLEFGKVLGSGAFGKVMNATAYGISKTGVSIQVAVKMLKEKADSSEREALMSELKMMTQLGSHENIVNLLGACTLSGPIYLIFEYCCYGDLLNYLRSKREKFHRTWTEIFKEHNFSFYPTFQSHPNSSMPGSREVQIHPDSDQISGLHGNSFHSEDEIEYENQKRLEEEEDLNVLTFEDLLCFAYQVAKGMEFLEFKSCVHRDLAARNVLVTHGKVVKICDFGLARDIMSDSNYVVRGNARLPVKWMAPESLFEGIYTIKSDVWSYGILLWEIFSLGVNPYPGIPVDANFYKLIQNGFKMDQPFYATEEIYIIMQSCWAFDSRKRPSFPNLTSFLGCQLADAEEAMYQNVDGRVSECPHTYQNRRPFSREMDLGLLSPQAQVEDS
Protocol: Activity of Inhibiting FLT3 Kinase
1. Preparation of 1 × Kinase Buffer and Termination Buffer:
(1) MnCl2-free 1× kinase buffer: 50 mM HEPES, pH 7.5, 0.0015% Brij-35, 10 mM MgCl2, 2 mM DTT;
(2) Termination buffer: 100 mM HEPES, pH 7.5, 0.015% Brij-35, 0.2% Coating Reagent #3, 50 mM EDTA.
2. Preparation of compounds for testing kinase: the compounds are diluted continuously.
(1) the compound was diluted to 50 times the maximum final concentration with 100% DMSO. […] of the solution containing the compound at this concentration was transferred to one hole of 96-well plate;
(2)10 concentrations of compounds were prepared by diluting 20 mL original solution with 60 mL DMSO;
(3) […] solution of 100% DMSO was added into two empty holes as compound-free control and enzyme-free control; (4) a transitional plate was prepared, 10 mL compounds at different concentrations were transferred from the original plate to the transitional plate respectively, 90 mL 1× kinase buffer was added, and then mixed under oscillation for 10 minutes;
(5) preparation of an experimental plate: 5 mL solution containing compounds was transferred from the hole of the transitional plate of the 96-well plate to the corresponding hole of 384-well plate.
(1) Preparation of 2.5× enzyme solution: enzyme was added to the 1× kinase buffer;
(2) Preparation of 2.5× peptide solution: a fluorescein labeled peptide and ATP were added to the 1× kinase buffer;
(3) 10 mL 2.5× enzyme solution was added to an experimental 384-well plate containing the compound solution with a concentration of 10% containing 5 mL DMSO and incubated at room temperature for 10 minutes;
(4) 10 mL 2.5× peptide solution was added to an experimental 384-well plate;
(5) kinase reaction and termination: Incubation was carried out at 28° C. for certain time, 25 mL termination buffer was added to terminate the reaction.
Data was read and collected.
(1) detected data was copied and converted
(2) data was converted to inhibitory rate
Inhibitory rate=(Maximum Value−Sample Value)/(Maximum Value−Minimum Value)*100;
wherein “Maximum Value” is the value of DMSO control; “Minimum Value” is the value of kinase-free control hole.
(3) the data was input an analysis software to obtain IC50 value.

[2] = tested on: mouse BaF3-FLT3-ITD-F691L (stably expressing FLT3/ITD F691L mutant activated kinase); test: Effects on proliferation of cells (Cell Titer-Glo), BaF3-FLT3-ITD-F691L; format: cell-based; settings: incubated for 72 hours
Excerpt: as §1
(10) mouse BaF3-FLT3-ITD-F691L (stably expressing FLT3/ITD F691L mutant activated kinase).
as §2

[3] = tested on: mouse TEL-BaF3-FLT3/ITD (stably expressing FLT3/ITD mutant activated kinase); test: Effects on proliferation of cells (Cell Titer-Glo), TEL-BaF3-FLT3/ITD; format: cell-based; settings: incubated for 72 hours
Excerpt: as §1
(6) mouse TEL-BaF3-FLT3/ITD (stably expressing FLT3/ITD mutant activated kinase);
as §2

[4] = tested on: human acute myeloid leukemia cell strain U937 (expressing wild-type FLT3 gene); test: Effects on proliferation of tumor cells (Cell Titer-Glo), U937; format: cell-based
Excerpt: as §1
(5) human acute myeloid leukemia cell strain U937 (expressing wild-type FLT3 gene);
as §2

[5] = tested on: mouse TEL-BaF3-FLT3-D835Y (stably expressing FLT3D835Y mutant activated kinase); test: Effects on proliferation of cells (Cell Titer-Glo), TEL-BaF3-FLT3-D835Y; format: cell-based; settings: incubated for 72 hours
Excerpt: as §1
(7) mouse TEL-BaF3-FLT3-D835Y (stably expressing FLT3D835Y mutant activated kinase);
as §2

[6] = tested on: human acute myeloid leukemia cell strain OCI-AML-3 (expressing FLT3A680V mutant gene); test: Effects on proliferation of tumor cells (Cell Titer-Glo), OCI-AML-3; format: cell-based; settings: OCI-AML-3, incubated for 72 hours
Excerpt: as §1
(4) human acute myeloid leukemia cell strain OCI-AML-3 (expressing FLT3A680V mutant gene);
as §2

[7] = tested on: human acute myeloid leukemia cell strain MOLM-14 (expressing FLT3/ITD mutant gene and wild-type FLT3 gene); test: Effects on proliferation of tumor cells (Cell Titer-Glo), MOLM-14; format: cell-based; settings: MOLM-14, incubated for 72 hours
Excerpt: as §1
(3) human acute myeloid leukemia cell strain MOLM-14 (expressing FLT3/ITD mutant gene and wild-type FLT3 gene);
as §2

[8] = tested on: mouse TEL-FLT3-BaF3 (stably expressing FLT3 kinase); test: Effects on proliferation of cells (Cell Titer-Glo), TEL-FLT3-BaF3; format: cell-based; settings: TEL-FLT3-BaF3, incubated for 72 hours
Excerpt: as §1
(8) mouse TEL-FLT3-BaF3 (stably expressing FLT3 kinase);
as §2

[9] = tested on: human acute monocytic leukemia cell strain MV4-11 (expressing FLT3/ITD mutant gene); test: Effects on proliferation of tumor cells (Cell Titer-Glo), MV4-11; format: cell-based; settings: MV4-11, incubated for 72 hours
Excerpt: as §1
(1) human acute monocytic leukemia cell strain MV4-11 (expressing FLT3/ITD mutant gene);
as §2

[10] = tested on: subcutaneous xenograft tumor of human MV-4-11; test: Therapeutic effects on subcutaneous xenograft tumor of human MV-4-11 in nude mice; format: in vivo, BALB/cA-nude mice; settings: MV-4-11 subcutaneous xenograft, 15 mg/kg intraperitoneal injection, 3 times a day for 21 days
Protocol: Preparation of test samples: all samples were prepared with 5% anhydrous ethanol, 5% Cremophor EL and 90% physiological saline.
Animals: BALB/cA-nude mice, 6-7 weeks, female ♀ purchased from Shanghai Lingchang Biotechnology Co., Ltd. Production license number was SC×K(Hu)2013-0018; animal certification number was 2013001810589.
Feeding environment: SPF Level.
Experiment steps: human acute myeloid leukemia cells MV-4-11 were inoculated subcutaneously in nude mice, after the tumor grows to 80-150 mm^3, animals were randomly divided into groups with 6 mice each group. The dosage was 15 mg/kg, the drugs were administrated by intraperitoneal injection, 3 times a day for 21 days. The volume of tumor was measured, the weight of mouse was weighed and the data were recorded.
The formula for calculating the volume of tumor (V) was: […]
Wherein a and b represented length and width respectively.
T/C (%)=(T−T0)/(C−C0)×100
Wherein T and C were the volume of tumor when the experiment was completed; T0 and C0 were the volume of tumor when the experiment was started.
The inhibited rate of tumor was calculated, the results were shown as Table 4.

[11] = tested on: human acute myeloid leukemia cell strain MOLM-13 (expressing FLT3/ITD mutant gene and wild-type FLT3 gene); test: Effects on proliferation of tumor cells (Cell Titer-Glo), MOLM-13; format: cell-based; settings: MOLM-13, incubated for 72 hours
Excerpt: as §1
(2) human acute myeloid leukemia cell strain MOLM-13 (expressing FLT3/ITD mutant gene and wild-type FLT3 gene);
as §2

Compound	IC50 [1]	IC50 (FLT3 kinase)	IC50 [2]	IC50 [3]	IC50 ([4]; U937, incubated for 72 hours)	IC50 [5]	IC50 [6]	IC50 [7]	IC50 [8]	IC50 [9]	Inhibited Rate of Tumor (%) [10]	IC50 [11]	further results
CC(=O)O.Nc1sc(-c2c(F)cccc2F)nc1C(=O)Nc1cncnc1OCC1CCNCC1 [Acetate of compound of Formula (I)]	0.53 µM	27 nM	0.94 µM	0.02 µM	2.09 µM	0.32 µM	0.32 µM	0.12 µM	0.03 µM	0.41 µM	77%	0.43 µM	
Nc1sc(-c2c(F)cccc2F)nc1C(=O)Nc1cncnc1OCC1CCNCC1 [Compound of Formula (I), 5-amino-2-(2,6-difluorophenyl)-N-(4-(piperidine-4-methoxy)pyrimidine-5-) thiazole-4-formamide]		40 nM									66%		IC50 ([1]; Mus musculus): 0.61 µM; IC50 ([2]; Mus musculus): 0.93 µM; IC50 ([3]; Mus musculus): 0.11 µM; IC50 ([4]; Homo sapiens, U-937, U937, incubated for 72 hours): ≥ 13.4 µM; IC50 ([5]; Mus musculus): 0.32 µM; IC50 ([6]; Homo sapiens): 0.34 µM; IC50 ([7]; Homo sapiens): 0.27 µM; IC50 ([8]; Mus musculus): 0.12 µM; IC50 ([9]; Homo sapiens): 0.51 µM; IC50 ([11]; Homo sapiens): 0.52 µM
Br.Nc1sc(-c2c(F)cccc2F)nc1C(=O)Nc1cncnc1OCC1CCNCC1 [Hydrobromide of compound of Formula (I)]	0.66 µM	39 nM	0.76 µM	0.02 µM	4.66 µM	0.31 µM	0.11 µM	0.13 µM	0.16 µM	0.42 µM	66%	0.51 µM	
Cl.Nc1sc(-c2c(F)cccc2F)nc1C(=O)Nc1cncnc1OCC1CCNCC1 [Hydrochloride salt of compound of Formula (I)]	0.32 µM	15 nM	0.45 µM	0.02 µM	6.21 µM	0.21 µM	0.05 µM	0.08 µM	0.03 µM	0.13 µM	86%	0.12 µM	
CC(O)C(=O)O.Nc1sc(-c2c(F)cccc2F)nc1C(=O)Nc1cncnc1OCC1CCNCC1 [Lactate of compound of Formula (I)]	0.34 µM	25 nM	0.64 µM	0.04 µM	9.05 µM	0.13 µM	0.08 µM	0.31 µM	0.06 µM	0.34 µM	71%	0.28 µM	
CS(=O)(=O)O.Nc1sc(-c2c(F)cccc2F)nc1C(=O)Nc1cncnc1OCC1CCNCC1 [Mesylate of compound of Formula (I)]	0.55 µM	28 nM	0.77 µM	0.02 µM	7.42 µM	0.31 µM	0.06 µM	0.13 µM	0.05 µM	0.43 µM	74%	0.45 µM	
Nc1sc(-c2c(F)cccc2F)nc1C(=O)Nc1cncnc1OCC1CCNCC1.O=S(=O)(O)O [Sulphate of compound of Formula (I)]	0.23 µM	28 nM	0.56 µM	0.04 µM	3.56 µM	0.22 µM	0.21 µM	0.22 µM	0.05 µM	0.23 µM	68%	0.23 µM	
